The record followed here is patent publication US11020399B2, “Intermediates useful in the synthesis of compounds as modulators of protein kinases” (Rhizen Pharmaceuticals SA, priority 2011, dated 2021).

In one series the target is PI3kγ (Homo sapiens, UniProt P48736). The series is described as follows: Fluorescent (HTRF) determination of PI3 kinase enzyme activity, PI3Kγ. It is filed as biochemical. The method, boiled down:
(§1)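 HTRF detection of PIP3 from PIP2 (1.38 μM in reaction mix) with 10 mM MgCl2, 5 mM DTT; compound preincubated with enzyme 10 min, then ATP (400 μM addition) 30 min at room temperature. Percent inhibition versus blank and enzyme controls at 1 μM (α, β) and 0.3 or 0.1 μM (γ, δ); IC50 also fitted.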
(In TR-FRET formats the signal depends on donor and acceptor labels being close together.)

The target of another series is PI3kδ (Homo sapiens, UniProt O00329). The series is described as follows: Fluorescent (HTRF) determination of PI3 kinase enzyme activity, PI3Kδ. It counts as biochemical. In a few lines: as §1
Sequence of PI3kδ (O00329 whole entry): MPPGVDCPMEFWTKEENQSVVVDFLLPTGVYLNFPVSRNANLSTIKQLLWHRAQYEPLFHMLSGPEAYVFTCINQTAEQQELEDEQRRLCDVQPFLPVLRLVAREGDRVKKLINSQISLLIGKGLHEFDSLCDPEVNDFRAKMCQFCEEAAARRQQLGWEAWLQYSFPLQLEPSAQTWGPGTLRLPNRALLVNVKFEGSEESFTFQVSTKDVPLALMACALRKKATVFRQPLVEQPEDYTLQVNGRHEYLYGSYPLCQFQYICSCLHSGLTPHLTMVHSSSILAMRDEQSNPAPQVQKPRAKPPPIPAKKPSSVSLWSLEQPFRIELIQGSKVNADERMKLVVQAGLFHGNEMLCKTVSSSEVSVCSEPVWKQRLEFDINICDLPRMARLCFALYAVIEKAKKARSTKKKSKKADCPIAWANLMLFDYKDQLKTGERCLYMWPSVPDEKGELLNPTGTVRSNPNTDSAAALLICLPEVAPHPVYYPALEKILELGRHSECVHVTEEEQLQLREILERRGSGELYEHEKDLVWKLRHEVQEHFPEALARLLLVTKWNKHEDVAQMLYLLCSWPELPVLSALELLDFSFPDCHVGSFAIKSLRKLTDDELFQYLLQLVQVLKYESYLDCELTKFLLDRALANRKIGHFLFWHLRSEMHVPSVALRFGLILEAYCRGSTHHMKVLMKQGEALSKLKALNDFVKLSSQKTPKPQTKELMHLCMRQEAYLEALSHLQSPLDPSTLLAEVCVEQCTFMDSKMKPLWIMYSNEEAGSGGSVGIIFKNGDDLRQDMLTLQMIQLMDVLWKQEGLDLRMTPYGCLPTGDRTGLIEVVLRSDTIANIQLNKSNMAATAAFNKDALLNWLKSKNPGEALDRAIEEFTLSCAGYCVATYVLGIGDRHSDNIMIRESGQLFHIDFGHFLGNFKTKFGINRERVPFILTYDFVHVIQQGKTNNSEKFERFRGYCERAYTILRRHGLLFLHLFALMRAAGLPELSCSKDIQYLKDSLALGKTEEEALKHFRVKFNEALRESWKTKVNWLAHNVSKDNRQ
Sequence of PI3kδ (P27986 whole entry partner): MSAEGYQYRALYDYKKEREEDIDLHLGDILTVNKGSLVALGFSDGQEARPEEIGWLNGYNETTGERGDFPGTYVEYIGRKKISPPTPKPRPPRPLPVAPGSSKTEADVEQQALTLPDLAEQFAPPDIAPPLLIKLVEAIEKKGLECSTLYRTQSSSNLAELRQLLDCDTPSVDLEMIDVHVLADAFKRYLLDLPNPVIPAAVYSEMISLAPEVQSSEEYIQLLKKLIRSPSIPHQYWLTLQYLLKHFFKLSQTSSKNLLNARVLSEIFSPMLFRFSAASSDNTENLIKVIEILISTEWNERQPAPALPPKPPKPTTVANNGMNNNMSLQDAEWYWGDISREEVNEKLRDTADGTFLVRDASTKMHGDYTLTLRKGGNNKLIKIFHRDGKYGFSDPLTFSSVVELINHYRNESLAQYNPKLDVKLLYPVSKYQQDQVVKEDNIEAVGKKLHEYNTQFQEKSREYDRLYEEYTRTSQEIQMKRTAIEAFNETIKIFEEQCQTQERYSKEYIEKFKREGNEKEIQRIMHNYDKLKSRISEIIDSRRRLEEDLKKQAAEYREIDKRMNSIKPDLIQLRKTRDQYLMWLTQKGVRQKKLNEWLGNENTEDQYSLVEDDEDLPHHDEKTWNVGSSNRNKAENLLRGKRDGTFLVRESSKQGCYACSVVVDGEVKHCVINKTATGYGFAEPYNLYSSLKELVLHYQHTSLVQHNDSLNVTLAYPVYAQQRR
Where [1] appears, read: 100 nM (Examples 60-137), 0.1 µM.

Sequence of PI3kγ (P48736 whole entry): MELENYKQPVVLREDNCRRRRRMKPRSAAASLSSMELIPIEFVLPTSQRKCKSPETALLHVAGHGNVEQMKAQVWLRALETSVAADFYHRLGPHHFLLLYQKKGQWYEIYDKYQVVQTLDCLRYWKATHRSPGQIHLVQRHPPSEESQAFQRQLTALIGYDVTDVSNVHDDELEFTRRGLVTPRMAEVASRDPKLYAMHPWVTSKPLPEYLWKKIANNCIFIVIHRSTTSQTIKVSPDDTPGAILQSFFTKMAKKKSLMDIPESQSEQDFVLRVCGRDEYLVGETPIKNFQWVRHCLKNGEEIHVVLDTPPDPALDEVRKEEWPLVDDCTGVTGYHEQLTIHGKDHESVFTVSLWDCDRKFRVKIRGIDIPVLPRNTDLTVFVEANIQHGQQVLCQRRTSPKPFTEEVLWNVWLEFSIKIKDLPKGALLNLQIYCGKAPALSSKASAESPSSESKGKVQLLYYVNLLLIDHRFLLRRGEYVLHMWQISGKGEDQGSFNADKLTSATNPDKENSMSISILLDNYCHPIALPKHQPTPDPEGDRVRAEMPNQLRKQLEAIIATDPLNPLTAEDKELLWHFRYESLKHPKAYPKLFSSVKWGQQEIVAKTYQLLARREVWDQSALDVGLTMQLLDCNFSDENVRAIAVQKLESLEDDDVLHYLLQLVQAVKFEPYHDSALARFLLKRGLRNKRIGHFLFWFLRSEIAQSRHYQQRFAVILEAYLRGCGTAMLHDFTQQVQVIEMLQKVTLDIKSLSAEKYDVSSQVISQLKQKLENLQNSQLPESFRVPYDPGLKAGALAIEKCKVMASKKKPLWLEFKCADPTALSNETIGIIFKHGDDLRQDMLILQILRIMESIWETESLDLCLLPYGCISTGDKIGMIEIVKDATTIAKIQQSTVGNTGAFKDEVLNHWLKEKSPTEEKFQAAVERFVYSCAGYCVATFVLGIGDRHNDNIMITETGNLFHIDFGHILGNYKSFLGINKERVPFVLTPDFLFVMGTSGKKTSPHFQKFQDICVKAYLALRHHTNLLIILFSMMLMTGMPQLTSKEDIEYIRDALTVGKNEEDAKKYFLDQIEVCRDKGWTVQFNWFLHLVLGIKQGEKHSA

For `Cc1nc(C)c(-c2nn(C(C)c3oc4cccc(F)c4c(=O)c3-c3cccc(F)c3)c3ncnc(N)c23)s1` (centres unmarked) [Example 75, 2-(1-(4-amino-3-(2,4-dimethylthiazol-5-yl)-1H-pyrazolo[3,4-d]pyrimidin-1-yl)ethyl)-5-fluoro-3-(3-fluorophenyl)-4H-chromen-4-one], the melting point (commonly the temperature of the solid-liquid transition) was in the range of 252 to 255 °C. The inhibition (as a rule, the share of the control response that was lost under treatment) at 0.1 µM against PI3kγ (100 nM (Examples 60-137)) was in the range of 0 to 25%. Besides, the inhibition at 0.1 µM on PI3kδ (100 nM (Examples 60-137)) was in the range of 25 to 50%.
For `COCc1ccc(-c2nn(C(C)c3oc4cccc(F)c4c(=O)c3-c3cccc(F)c3)c3ncnc(N)c23)cc1` (centres unmarked) [Example 72, 2-(1-(4-amino-3-(4-(methoxymethyl)phenyl)-1H-pyrazolo[3,4-d]pyrimidin-1-yl)ethyl)-5-fluoro-3-(3-fluorophenyl)-4H-chromen-4-one] the same measures were 204 to 207 °C, 25 to 50% and 0 to 25%.
For `C[C@H](Nc1nc(F)nc2[nH]cnc12)c1oc2cccc(F)c2c(=O)c1-c1cccc(F)c1` (racemic) [Example 136, (S)/(R)-5-fluoro-2-(1-(2-fluoro-9H-purin-6-ylamino)ethyl)-3-(3-fluorophenyl)-4H-chromen-4-one] the same measures were 183 to 186 °C, 25 to 50% and 25 to 50%.
`CC(c1oc2cccc(F)c2c(=O)c1-c1cccc(F)c1)n1nc(-c2ccc(OC(F)(F)F)c(F)c2)c2c(N)ncnc21` (centres unmarked) [Example 45, 2-(1-(4-amino-3-(3-fluoro-4-(trifluoromethoxy)phenyl)-1H-pyrazolo[3,4-d]pyrimidin-1-yl)ethyl)-5-fluoro-3-(3-fluorophenyl)-4H-chromen-4-one] came in with a melting point of 247 to 249 °C. Besides, the inhibition at 0.3 µM on PI3kγ (300 nM (Examples 1-59)) was in the range of 25 to 50%. For the same compound, the inhibition at 0.3 µM at PI3kδ (300 nM (Examples 1-59)) was in the range of 50 to 75%.
For `CC(C)Oc1ccc(-c2nn(C(C)c3oc4cccc(F)c4c(=O)c3-c3cccc(F)c3)c3ncnc(N4CCOCC4)c23)cc1F` (racemic) [Example 116, (S)/(R)-5-fluoro-2-(1-(3-(3-fluoro-4-isopropoxyphenyl)-4-morpholino-1H-pyrazolo[3,4-d]pyrimidin-1-yl)ethyl)-3-(3-fluorophenyl)-4H-chromen-4-one], the melting point was in the range of 136 to 138 °C. Moreover, the “% inhibition (PI3kγ) 100 nM” value at PI3kγ (setting [1]) is “D (D=0 to 25%)”. For the same compound, the “% inhibition (PI3kδ) 100 nM” value at PI3kδ (setting [1]) was “D (D=0 to 25%)”.
In turn, `CC(C)Oc1ccc(-c2nn(C(C)c3oc4cccc(F)c4c(=O)c3-c3cccc(F)c3)c3ncnc(N(C)C)c23)cc1F` (centres unmarked) [Example 83, 2-(1-(4-(dimethylamino)-3-(3-fluoro-4-isopropoxyphenyl)-1H-pyrazolo[3,4-d]pyrimidin-1-yl)ethyl)-5-fluoro-3-(3-fluorophenyl)-4H-chromen-4-one] returned a melting point of 122 to 124 °C. Also, at PI3kγ, the IC50 (usually the point on the concentration scale where inhibition reaches its midpoint) was at most 50 nM. The inhibition at 0.1 µM on PI3kγ (100 nM (Examples 60-137)) was 75 to 100%. On PI3kδ, this compound came in with a half-inhibitory concentration (IC50) of at most 50 nM. For the same compound, at PI3kδ (100 nM (Examples 60-137)), the inhibition at 0.1 µM was in the range of 75 to 100%.
In turn, `COc1c(C)cc(-c2nn(C(C)c3oc4cccc(F)c4c(=O)c3-c3cccc(F)c3)c3ncnc(N)c23)cc1C` (centres unmarked) [Example 71, 2-(1-(4-amino-3-(4-methoxy-3,5-dimethylphenyl)-1H-pyrazolo[3,4-d]pyrimidin-1-yl)ethyl)-5-fluoro-3-(3-fluorophenyl)-4H-chromen-4-one] had a melting point of 232 to 235 °C. For the same compound, the inhibition at 0.1 µM against PI3kγ (100 nM (Examples 60-137)) is 25 to 50%. For the same compound, the inhibition at 0.1 µM against PI3kδ (100 nM (Examples 60-137)) was 0 to 25%.
In turn, `CCOc1ccc(-c2nn(C(C)c3oc4cccc(F)c4c(=O)c3-c3cccc(F)c3)c3ncnc(N)c23)cc1C(F)(F)F` (centres unmarked) [Example 132, 2-(1-(4-amino-3-(4-ethoxy-3-(trifluoromethyl)phenyl)-1H-pyrazolo[3,4-d]pyrimidin-1-yl)ethyl)-5-fluoro-3-(3-fluorophenyl)-4H-chromen-4-one] yielded a melting point of 225 to 227 °C. For the same compound, the inhibition at 0.1 µM against PI3kγ (100 nM (Examples 60-137)) is 25 to 50%. Also, at PI3kδ (100 nM (Examples 60-137)), the inhibition at 0.1 µM lay in the range of 50 to 75%.
